Data: ChEMBL document CHEMBL1201862, “PubChem BioAssay data set” (2004)
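Cultured in 96-well plates, cells were exposed to test compound for 48 hours across five concentrations. GI50: concentration for 50% inhibition of growth.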 Calls of active or inactive are those of the source. Rule as the data show it: active = GI50 up to about 1.1 µM and inactive = higher.

How the values were obtained:
Assay in all cases: DTP human tumour cell line panel, 48 h
[1] = tested on: NCI-H460
[2] = tested on: SF-268
[3] = tested on: RPMI-8226
[4] = tested on: HOP-62
[5] = tested on: IGROV-1
[6] = tested on: MOLT-4
[7] = tested on: HL-60
[8] = tested on: A498
[9] = tested on: RXF 393
[10] = tested on: SK-MEL-2
[11] = tested on: HCC 2998
[12] = tested on: UACC-257
[13] = tested on: CAKI-1
[14] = tested on: OVCAR-3
[15] = tested on: HT-29
[16] = tested on: EKVX
[17] = tested on: OVCAR-5

Measured: GI50

CC(C)O/C=C1\C(=O)C2(SCCS2)[C@H]2CCCC[C@@H]12
inactive: [1] 33.7 µM | [2] 39 µM | [3] 25.4 µM | [4] 38 µM | [5] 49.7 µM | [6] 16.2 µM | [7] 24.2 µM | [8] 17.7 µM | [9] 21.8 µM | [10] 34.8 µM | [11] 66.4 µM | [12] 42.6 µM | [13] 29.2 µM

CCOC(=O)COc1cccc2occc(=O)c12
inactive: [1] > 100 µM | [2] > 100 µM | [3] > 100 µM | [14] > 100 µM | [15] > 100 µM | [4] > 100 µM | [5] > 100 µM | [6] > 100 µM | [7] > 100 µM | [8] > 100 µM | [16] > 100 µM | [17] > 100 µM | [10] > 100 µM | [11] > 100 µM | [12] > 100 µM | [13] > 100 µM

CC1=NN(C(=O)Nc2ccccc2)C(=O)C2CCC(=O)N12 (centres undefined)
inactive: [1] > 100 µM | [2] > 100 µM | [3] > 100 µM | [14] > 100 µM | [4] > 100 µM | [5] > 100 µM | [6] > 100 µM | [7] > 100 µM | [8] > 100 µM | [16] > 100 µM | [9] > 100 µM | [10] > 100 µM | [11] > 100 µM | [12] > 100 µM | [13] > 100 µM

c1ccc(SC(Sc2ccccc2)=C2CCC2)cc1
inactive: [1] > 100 µM | [2] > 100 µM | [3] > 100 µM | [14] > 100 µM | [4] > 100 µM | [6] > 100 µM | [7] > 100 µM | [8] > 100 µM | [16] > 100 µM | [9] > 100 µM | [10] > 100 µM | [12] > 100 µM | [13] > 100 µM

CCC(C)(C)n1c(C)nc2c1C(=O)c1ccccc1C2=O
inactive: [1] 12.2 µM | [2] 29.6 µM | [14] 30.7 µM | [15] 31.6 µM | [4] 30.5 µM | [5] 34 µM | [6] 18.8 µM | [7] 7.62 µM | [16] 34.1 µM | [9] 21.1 µM | [10] 18.7 µM | [11] 45.8 µM | [12] 33.5 µM

Cc1nc2sccn2c1C(=O)NN
inactive: [1] > 100 µM | [2] > 100 µM | [3] > 100 µM | [14] > 100 µM | [15] > 100 µM | [4] > 100 µM | [5] > 100 µM | [6] > 100 µM | [7] > 100 µM | [16] > 100 µM | [9] > 100 µM | [17] > 100 µM | [10] > 100 µM | [11] > 100 µM | [12] > 100 µM | [13] > 100 µM

Cn1cnc([N+](=O)[O-])c1Sc1nnnn1C
inactive: [1] 39.8 µM | [2] 21.5 µM | [3] 23 µM | [14] 15.9 µM | [15] 19.4 µM | [4] > 100 µM | [5] 19.5 µM | [6] 9.12 µM | [8] 65.6 µM | [16] 18.3 µM | [17] 23.9 µM | [10] 16.9 µM | [11] 23.6 µM | [12] 16.3 µM | [13] 17.1 µM

C/C(=N/O)c1ccc2c(c1)/C(=N/O)c1cc(/C(C)=N/O)ccc1-2
inactive: [1] 17.7 µM | [2] 14.9 µM | [3] 26.5 µM | [14] 20.3 µM | [15] 12.6 µM | [4] 13.4 µM | [5] 21.1 µM | [6] 2.49 µM | [7] 18.4 µM | [16] 7.13 µM | [9] 23 µM | [17] 17.4 µM | [10] 23.9 µM | [11] 15.3 µM | [12] 2.39 µM | [13] 35.8 µM

COc1ccc(NC(=O)CC/C(CC(=O)c2ccccc2Cl)=N\Nc2nnc(C)n2N)cc1
inactive: [1] > 100 µM | [2] > 100 µM | [15] > 100 µM | [5] > 100 µM | [6] > 100 µM | [7] > 100 µM | [16] > 100 µM | [9] > 100 µM | [17] > 100 µM | [10] > 100 µM | [11] > 100 µM | [12] > 100 µM | [13] > 100 µM

COc1ccc(C(=O)C(c2ccc(OC)cc2)C2(O)C(=O)Nc3c(C)cc(Cl)cc32)cc1 (centres undefined)
inactive: [1] > 100 µM | [2] 82.8 µM | [3] 14.4 µM | [14] 52 µM | [15] 63.5 µM | [4] > 100 µM | [5] 72.8 µM | [6] 14.1 µM | [7] 17.1 µM | [8] > 100 µM | [16] > 100 µM | [9] > 100 µM | [17] > 100 µM | [10] > 100 µM | [11] > 100 µM | [12] 55 µM

C=CCC1C(=O)CC2(C)CC(=O)C(CC=C)C12C (centres undefined)
inactive: [1] > 100 µM | [2] > 100 µM | [3] > 100 µM | [14] > 100 µM | [15] > 100 µM | [4] > 100 µM | [5] > 100 µM | [6] > 100 µM | [7] > 100 µM | [16] > 100 µM | [9] > 100 µM | [17] > 100 µM | [11] > 100 µM | [12] > 100 µM | [13] > 100 µM

COc1ccc(C(=O)C(CC2C(=O)NC(=O)NC2=O)c2ccc(OC)cc2)cc1 (centres undefined)
inactive: [1] > 100 µM | [2] > 100 µM | [14] > 100 µM | [15] > 100 µM | [4] > 100 µM | [5] > 100 µM | [6] > 100 µM | [7] > 100 µM | [8] > 100 µM | [16] > 100 µM | [9] > 100 µM | [17] > 100 µM | [10] > 100 µM | [11] > 100 µM | [12] > 100 µM | [13] > 100 µM

CN(/N=C\c1ccnc2ccccc12)c1ccccc1
inactive: [1] 23.7 µM | [2] 56.1 µM | [3] > 100 µM | [14] 20.2 µM | [15] 18.9 µM | [4] 28.1 µM | [5] 45.5 µM | [6] > 100 µM | [7] 17.5 µM | [8] 21 µM | [16] 9.12 µM | [9] 30.2 µM | [17] 16.8 µM | [10] 19.5 µM | [12] 20 µM | [13] 31.5 µM

CCC12C=CCN(CCc3c([nH]c4ccccc34)/C=C\1)C2 (centres undefined)
inactive: [1] > 100 µM | [2] > 100 µM | [3] > 100 µM | [14] > 100 µM | [15] > 100 µM | [4] > 100 µM | [5] > 100 µM | [6] > 100 µM | [7] > 100 µM | [8] > 100 µM | [16] > 100 µM | [10] > 100 µM | [11] > 100 µM | [12] > 100 µM | [13] > 100 µM

CSc1nnc(COc2ccc(Cl)cc2)o1
inactive: [1] > 100 µM | [2] > 100 µM | [14] > 100 µM | [15] > 100 µM | [4] > 100 µM | [5] > 100 µM | [8] > 100 µM | [16] > 100 µM | [9] > 100 µM | [17] > 100 µM | [12] > 100 µM | [13] > 100 µM

NC(=O)c1nc(-c2ccc(Cl)c(Cl)c2)nc2ccccc12
inactive: [1] > 55.7 µM | [2] 19.1 µM | [3] > 21.1 µM | [15] > 100 µM | [4] > 21.9 µM | [5] > 100 µM | [6] > 100 µM | [7] > 100 µM | [8] 16.1 µM | [16] > 41.6 µM | [9] 12.5 µM | [17] > 100 µM | [10] 9.42 µM | [12] > 29.1 µM | [13] > 94.4 µM

O=C(CN1C(=O)c2ccccc2C1=O)OC1C=CCCC1 (centres undefined)
inactive: [1] > 100 µM | [2] > 100 µM | [3] > 100 µM | [4] > 100 µM | [5] > 100 µM | [6] > 100 µM | [7] > 100 µM | [8] > 100 µM | [16] > 100 µM | [9] > 100 µM | [10] > 100 µM | [11] > 100 µM | [12] > 100 µM | [13] > 100 µM

CCCCCCCCCCCCCCCC(=O)NCC(COP(=O)([O-])OCC[N+](C)(C)C)OCC (centres undefined)
inactive: [1] 2.96 µM | [2] 12.8 µM | [3] 2.9 µM | [14] 6.25 µM | [15] 5.22 µM | [4] 7.35 µM | [5] 4.54 µM | [6] 3.24 µM | [8] > 10 µM | [16] 19.2 µM | [9] 2.1 µM | [17] 10 µM | [11] 1.55 µM | [12] 15.7 µM | [13] 19.7 µM

C[N+](C)(C)C1CC([N+](C)(C)C)C2c3ccccc3C21 (centres undefined)
inactive: [1] > 100 µM | [2] > 100 µM | [3] > 100 µM | [14] > 100 µM | [15] > 100 µM | [4] > 100 µM | [5] > 100 µM | [7] > 100 µM | [8] > 100 µM | [16] > 100 µM | [9] > 100 µM | [17] > 100 µM | [11] > 100 µM | [12] > 100 µM | [13] > 100 µM
